This is an account of results in patent publication US12194050B2, “Thiadiazine derivatives” (RICHTER GEDEON NYRT., priority 2018, dated 2025).

In experiment [1] the target is human α7 nAchR (Homo sapiens (Human), UniProt P36544). The experiment is described as follows: Human α7 nicotinic acetylcholine receptor [Ca2+]i assay (PAM, Ca2+ fluorometry). The conditions noted are these: Flp-In 293 cells expressing human α7 nAchR and human RIC-3; in presence of saturating agonist (mostly PNU-282987, 1 μM). It is filed as cell-based.
Experiment [2] has as its system Male NMRI mice. The experiment is described as follows: Place recognition test (Y-maze), reversal of scopolamine-induced amnesia. In kind it is in vivo. The conditions noted are these: scopolamine 1 mg/kg i.p. As for the experimental part:
In Vivo Pharmacology (Place Recognition Test)
Animals: Male NMRI mice (Toxicoop, Hungary)
Substances: Scopolamine was dissolved in saline and administered at 1 mg/kg dose i.p. Test compounds were administered 30 minutes before the acquisition trial (T1) and scopolamine after the acquisition trial at a volume of 0.1 ml/10 g.
Procedure: The task was carried out in a transparent plexiglass Y-maze (each arm has a length of 40 cm, an inner width of 11 cm and a height of 30 cm). Numerous visual cues were placed around the arms and were kept constant during the experiment. The test consisted of two trials (T1 and T2) separated by an intertrial interval of 30 minutes. Mice were placed in the starting arm of the maze at the beginning of each trial. In T1, one of the symmetric arms of the maze was closed (it will be novel in T2) and the animals were allowed to explore the maze for 5 minutes (acquisition phase). In T2, mice had free access to all three arms for 2 minutes (retrieval phase). The time spent with exploration in the novel and familiar arms during T2 was measured. Differences between the exploration times spent in the familiar vs. novel arms of the maze for each group were evaluated by MANOVA, followed by Duncan post hoc test.
Significant differences (^+p<0.05; ^++p<0.01; ^+++p<0.001) were observed between the exploration times spent in the novel vs. familiar arms of the maze.

Each structure is given as a SMILES string.

Sequence of human α7 nAchR (P36544 23-502): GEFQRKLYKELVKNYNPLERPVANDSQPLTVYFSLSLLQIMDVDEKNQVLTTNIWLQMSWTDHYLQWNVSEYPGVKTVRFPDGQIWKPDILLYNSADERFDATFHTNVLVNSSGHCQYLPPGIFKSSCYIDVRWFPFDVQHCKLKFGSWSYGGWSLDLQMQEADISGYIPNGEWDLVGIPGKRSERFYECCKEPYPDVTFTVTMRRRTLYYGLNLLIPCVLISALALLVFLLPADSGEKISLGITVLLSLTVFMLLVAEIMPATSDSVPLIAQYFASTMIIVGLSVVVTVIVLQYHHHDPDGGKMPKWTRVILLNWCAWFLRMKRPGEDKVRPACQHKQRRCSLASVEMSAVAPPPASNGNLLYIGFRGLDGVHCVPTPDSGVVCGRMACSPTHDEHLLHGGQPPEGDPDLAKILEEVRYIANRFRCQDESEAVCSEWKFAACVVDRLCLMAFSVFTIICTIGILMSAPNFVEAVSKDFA

In general, EC50 refers to the concentration giving half of the maximal effect. Consider `CCCN1C(C(=O)Nc2cccc(C(F)(F)F)c2)=CC(c2ccc(OC)c(OC)c2)=NS1(=O)=O` [Example 94], for which the EC50 in experiment [1] turned out to be 340 nM. Moreover, the “reversal of the scopolamine-induced amnesia; significance of exploration time novel vs. familiar arm” value in experiment [2] (1 mg/kg i.p.), in experiment [2] (3 mg/kg i.p.) and in experiment [2] (10 mg/kg i.p.) was “+++ (+++p < 0.001)” each time.
As to `CCN1C(C(=O)Nc2cccc(C)c2)=CC(c2ccc(OC)c(OC)c2)=NS1(=O)=O` [Example 29], in experiment [1], the EC50 stood at 340 nM. The “reversal of the scopolamine-induced amnesia; significance of exploration time novel vs. familiar arm” value in experiment [2] (1 mg/kg i.p.) was “+++ (+++p < 0.001)”; in experiment [2] (3 mg/kg i.p.), “++ (++p < 0.01)”; in experiment [2] (10 mg/kg i.p.), “+++ (+++p < 0.001)”.
